These results are taken from US20240016784A1, “Y BOX BINDING PROTEIN 1 INHIBITORS” (Oregon Health & Science University, priority 2020, published 2024).

SMILES strings stand for the structures.

One test deals with OVCAR8 OC tumors. Kind of test: OVCAR8 xenograft combination study. Type of test: in vivo, NOD-SCID mice. The note with it: SU056 10 mg/kg daily, paclitaxel 5 mg/kg weekly, intraperitoneal, 28 days. As for the experimental part: In a pharmacokinetics study in vivo, injection of 20 mg/kg SU056 led to a maximum serum concentration of 28.19 μg/mL with a T1/2 of ˜45 min. We then tested the synergism of paclitaxel and SU056 co-treatment in vivo in NOD-SCID mice implanted with OVCAR8 OC tumors as described above. Mice were given daily treatment of SU056 (10 mg/kg) and weekly treatment of paclitaxel (5 mg/kg) were administered intraperitoneally. […] This likely resulted from decreased paclitaxel efflux from OVCAR8 cells in the presence of SU056.
In vivo xenograft model and drug efficacy study: All animal experiments were reviewed and approved by the Animal Care and Use Committee of Stanford University, CA, USA. Luciferase tagged ID8 (2×10^6) or OVCAR8 (5×10^6) cells were implanted into the right flank of 6-7-week-old female C57BL/6 mice and NOD/SCID mice, respectively. Respective treatment began after tumors grew to 100-200 mm^3 diameters. The ID8 syngeneic mice model was treated with a vehicle (30% PEG-300 in saline), 20 mg/kg SU093, and 20 mg/kg SU056 intraperitoneally (IP) daily for 42 days. At the end of treatment, blood was collected from each mouse and analyzed for liver toxicity parameters, including Alanine Aminotransferase (ALT), Aspartate Aminotransferase (AST), and Alkaline Phosphatase (ALKP). […]

A further test has as its target T1, PSMB2 (Homo sapiens, UniProt P49721).
T1 construct: endogenous in cells; host or cells: OVCAR8
Kind of test: Cellular Thermal Shift Assay (CETSA) in OVCAR8 cells. It is filed as binding. The note with it: SU056 2.5 μM, 1.5 h, read-out: increase in thermal stability (Tm shift) of PSMB2. As for the experimental part: (§1) The cellular thermal shift assay (CETSA) is based on the principle of protein-ligand interactions causing a shift in protein thermal stability (Savitski et al., 2014). When a protein interacts with ligand, its thermal stability increases, and this principle allows identification of which protein targets that are engaged by small molecules or drug candidates. We used this assay to identify protein targets of SU056. OVCAR8 cells were treated with SU056 (2.5 μM) for 1.5 h, and protein lysates were analyzed for a thermal shift. The heat maps represent the thermal stability of 804 soluble proteins in the presence and absence of SU056 compare with 37° C. (FIG. 3A).
(§2) Cellular Thermal Shift Assay (CETSA): The assay was performed as previously described (Savitski et al., 2014). Briefly, OVCAR8 cells were treated with vehicle (DMSO) or SU056 (2.5 μM) at 70-80% confluency for 1.5 h. Cells were harvested and washed with 1×PBS twice. Cells were pelleted and resuspended in PBS. 10 different PCR tubes with 1×10^6 cells/tube (in 100 μL PBS) were prepared for both the groups. Tubes were exposed to respective temperatures (37, 41, 44, 47, 50, 53, 56, 59, 63, 67° C.) for 3 min using a thermal cycler (Bio-Rad, CA, USA) followed by 2 min incubation at room temperature.

Another test deals with T2, SUMO2 (Homo sapiens, UniProt P61956).
T2 construct: endogenous in cells; host or cells: OVCAR8
The test is described as above. It is filed as binding. The note with it: SU056 2.5 μM, 1.5 h, read-out: increase in thermal stability (Tm shift) of SUMO2. As for the experimental part: as §1, §2

The target in the next test is T3, TMSB4X (Homo sapiens, UniProt P62328).
T3 construct: endogenous in cells; host or cells: OVCAR8
The test is described as above. It is filed as binding. As to conditions: SU056 2.5 μM, 1.5 h, read-out: increase in thermal stability (Tm shift) of TMSB4X. As for the experimental part: as §1, §2

The target in the next test is T4, CALM3 (Homo sapiens, UniProt P0DP25).
T4 construct: endogenous in cells; host or cells: OVCAR8
Described as above. Type of test: binding. As to conditions: SU056 2.5 μM, 1.5 h, read-out: increase in thermal stability (Tm shift) of CALM3. As for the experimental part: as §1, §2

In a further test the target is T5, TMSB10 (Homo sapiens, UniProt P63313).
T5 construct: endogenous in cells; host or cells: OVCAR8
The description is as above. As to conditions: SU056 2.5 μM, 1.5 h, read-out: increase in thermal stability (Tm shift) of TMSB10. It is filed as binding. As for the experimental part:
as §1, §2

T3 sequence (P62328 whole entry): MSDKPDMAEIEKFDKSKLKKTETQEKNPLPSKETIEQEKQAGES
T2 sequence (P61956 1-93 limits assumed): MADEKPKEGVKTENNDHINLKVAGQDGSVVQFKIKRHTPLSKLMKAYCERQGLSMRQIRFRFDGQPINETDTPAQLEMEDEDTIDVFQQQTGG
T5 sequence (P63313 whole entry): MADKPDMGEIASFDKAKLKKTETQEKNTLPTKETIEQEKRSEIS

`O=C1OCC2=C1C(c1cccc(F)c1)c1cc3c(cc1N2CCO)OCO3` (stereo not drawn) [SU056, 9-(3-fluorophenyl)-5-(2-hydroxyethyl)-6,9-dihydro-[1,3]dioxolo[4,5-g]furo[3,4-b]quinolin-8(5H)-one]: in the test with OVCAR8 OC tumors, the OC tumor growth entry was “significant reduction in OC tumor growth”. Also, the ΔTm at 2.5 µM stood at 5.36 ± 0.76 °C on PSMB2; 5.4 ± 1.08 °C at SUMO2; 4.43 ± 1.31 °C on TMSB4X; 4.03 ± 1.07 °C on CALM3; 5.89 ± 1.18 °C at TMSB10.
